{"source": "patent US4125707A", "about": "“Protected pseudotrisaccharide intermediate for paromomycin and neomycin derivatives” (Societa' Farmaceutici Italia S.p.A., priority 1974, dated 1978)", "key": {"Euglena gracilis": {"tested_on": "Euglena gracilis", "assay": "growth inhibition of Euglena gracilis in liquid nutrient medium", "type": "cell-based", "procedure": "(§1) Other tests were carried out on algae and protozoa in order to evaluate the sensitivity of eukaryotic organisms to this new molecule (determination of MIC in liquid nutrient medium).\n(§2) (*)Dose inhibiting 50% of growth (.LAMBDA.) or of protein"}, "algae and protozoa": {"tested_on": "algae and protozoa", "assay": "growth of algae and protozoa", "type": "cell-based", "details": "eukaryotic microorganisms, Table 2", "procedure": "as §1"}, "Proteus sp.2": {"tested_on": "Proteus sp.2", "assay": "MIC, serial dilutions in liquid medium, Proteus sp.2", "type": "cell-based", "details": "24 h", "procedure": "(§3) The \"in vitro\" tests were carried out with the method of serial dilutions in liquid medium (Nutrient Broth Difco). The minimal inhibitory concentration (MIC) was determined after 24 h incubation at 37° C.\n(§4) The resistance to the aminosidine is due, in the case of E. coli 526, to the production of an aminoglycoside inactivating enzyme (NKT I); the other strains are clinical isolates whose mechanism of resistance is not know."}, "Klebsiella pneumoniae": {"tested_on": "Klebsiella pneumoniae", "assay": "MIC, serial dilutions in liquid medium, Klebsiella pneumoniae", "type": "cell-based", "details": "24 h", "procedure": "as §3"}, "E.coli K12": {"tested_on": "E.coli K12", "assay": "MIC, serial dilutions in liquid medium, E. coli K12", "type": "cell-based", "details": "Escherichia coli, 24 h, 37° C, Nutrient Broth Difco", "procedure": "as §3"}, "Staphylococcus aureus": {"tested_on": "Staphylococcus aureus", "assay": "therapeutic activity in mice experimentally infected with Staphylococcus aureus", "type": "in vivo", "details": "sc", "procedure": "(§5) The therapeutic activity was assessed in mice experimentally infected with Staphylococcus aureus and treated (4 h after infection) with a single dose of the compound by the subcutaneous route."}, "Tetrahymena geleei": {"tested_on": "Tetrahymena geleei", "assay": "growth inhibition of Tetrahymena geleei in liquid nutrient medium", "type": "cell-based", "procedure": "as §1, §2"}, "Escherichia coli B": {"tested_on": "Escherichia coli B", "assay": "MIC, serial dilutions in liquid medium, Escherichia coli B", "type": "cell-based", "details": "24 h, 37° C, Nutrient Broth Difco", "procedure": "as §3"}, "Proteus sp.1": {"tested_on": "Proteus sp.1", "assay": "MIC, serial dilutions in liquid medium, Proteus sp.1", "type": "cell-based", "details": "24 h, 37° C, Nutrient Broth Difco", "procedure": "as §3, §4"}, "[1]": {"tested_on": "resistant strains (E. coli, Proteus sp.)", "assay": "antibacterial activity on resistant strains", "type": "cell-based", "details": "for growth of resistant strains (in words): E. coli, Proteus sp., at concentrations at which 224 prevents growth", "procedure": "as §3, §4"}, "Proteus sp.3": {"tested_on": "Proteus sp.3", "assay": "MIC, serial dilutions in liquid medium, Proteus sp.3", "type": "cell-based", "details": "24 h, 37° C, Nutrient Broth Difco", "procedure": "as §3, §4"}, "Entamoeba histolytica": {"tested_on": "Entamoeba histolytica", "assay": "growth inhibition of Entamoeba histolytica in liquid nutrient medium", "type": "cell-based", "procedure": "as §1"}, "Ochromonas malhamensis": {"tested_on": "Ochromonas malhamensis", "assay": "growth inhibition of Ochromonas malhamensis in liquid nutrient medium", "type": "cell-based", "procedure": "as §1, §2"}, "E.coli 526": {"tested_on": "E.coli 526", "assay": "MIC, serial dilutions in liquid medium, E. coli 526 (resistant, NKT I)", "type": "cell-based, Escherichia coli", "procedure": "as §3, §4"}, "Staphilococcus aureus": {"tested_on": "Staphilococcus aureus", "assay": "MIC, serial dilutions in liquid medium, Staphylococcus aureus", "type": "cell-based", "details": "24 h", "procedure": "as §3"}, "Proteus sp.5": {"tested_on": "Proteus sp.5", "assay": "MIC, serial dilutions in liquid medium, Proteus sp.5", "type": "cell-based", "details": "24 h", "procedure": "as §3, §4"}, "[2]": {"tested_on": "ribosomes from Escherichia coli (7OS)", "assay": "inhibition of protein synthesis in cell-free system, 70S ribosomes", "type": "biochemical", "details": "for Activity (ID 50%), dose inhibiting 50% of protein synthesis: cell-free system, 70S ribosomes", "procedure": "(§6) Finally, compound 224 was tested as an inhibitor of protein synthesis on cell-free systems containing ribosomes from Escherichia coli (7OS) or from Saccharomyces cerevisiae (8OS).\nas §2"}, "acute toxicity in mice": {"assay": "acute toxicity in mice", "details": "mouse, in vivo, sc, subcutaneous route", "procedure": "There were also carried out comparative trials for determining the actue toxicity and ototoxicity. The LD50 values in mice by the subcutaneous route are: Aminosidine, 700 mg/kg; Compound 224, 1000 mg/kg."}, "[3]": {"tested_on": "ribosomes from Saccharomyces cerevisiae (8OS)", "assay": "inhibition of protein synthesis in cell-free system, 80S ribosomes", "type": "biochemical", "procedure": "as §6, §2"}, "Proteus sp.4": {"tested_on": "Proteus sp.4", "assay": "MIC, serial dilutions in liquid medium, Proteus sp.4", "type": "cell-based", "details": "24 h, 37° C, Nutrient Broth Difco", "procedure": "as §3, §4"}, "[4]": {"tested_on": "bacteria sensitive to the aminosidine", "assay": "antibacterial activity in vitro and in vivo on bacteria sensitive to aminosidine", "procedure": "as §3, §5"}, "[5]": {"details": "37° C, Nutrient Broth Difco, read-out: MIC"}}, "note": "Like-named read-outs stand apart in the source and are kept apart here.", "data": [{"compound": "NC[C@@H]1O[C@H](O[C@H]2[C@@H](O)[C@H](O[C@@H]3[C@@H](O)[C@H](N)C[C@H](N)[C@H]3O[C@H]3O[C@H](CO)[C@@H](O)[C@H](O)[C@H]3N)O[C@@H]2CO)[C@H](N)[C@@H](O)[C@@H]1O", "note": "[Aminosidine, reference compound]", "values": [{"measurement": "Activity (ID 50%), dose inhibiting 50% of growth", "setting": "Euglena gracilis", "value": 12.5}, {"measurement": "effect on growth of algae and protozoa (in words)", "setting": "algae and protozoa", "value": "strong inhibitor of the organisms tested"}, {"measurement": "MIC", "setting": "Proteus sp.2", "value": "> 500", "unit": "µg/mL"}, {"measurement": "MIC", "setting": "Klebsiella pneumoniae", "value": 1, "unit": "µg/mL"}, {"measurement": "MIC", "setting": "E.coli K12", "value": 500, "unit": "µg/mL"}, {"measurement": "ED50", "setting": "Staphylococcus aureus; 4 h, read-out: DT50", "value": 25, "unit": "mg/kg"}, {"measurement": "Activity (ID 50%), dose inhibiting 50% of growth", "setting": "Tetrahymena geleei", "value": 12.5}, {"measurement": "MIC", "setting": "Escherichia coli B", "value": 6.2, "unit": "µg/mL"}, {"measurement": "MIC", "setting": "Proteus sp.1", "value": 500, "unit": "µg/mL"}, {"measurement": "growth of resistant strains (in words)", "setting": "[1]", "value": "completely inactive"}, {"measurement": "MIC", "setting": "Proteus sp.3", "value": "> 500", "unit": "µg/mL"}, {"measurement": "Activity (ID 50%), dose inhibiting 50% of growth", "setting": "Entamoeba histolytica", "value": 1}, {"measurement": "Activity (ID 50%), dose inhibiting 50% of growth", "setting": "Ochromonas malhamensis", "value": 1.56}, {"measurement": "MIC", "setting": "E.coli 526; Escherichia coli, 526, 24 h", "value": "> 500", "unit": "µg/mL"}, {"measurement": "MIC", "setting": "Staphilococcus aureus", "value": 3.1, "unit": "µg/mL"}, {"measurement": "MIC", "setting": "Proteus sp.5", "value": "> 500", "unit": "µg/mL"}, {"measurement": "Activity (ID 50%), dose inhibiting 50% of protein synthesis", "setting": "[2]", "value": 30}, {"measurement": "LD50", "setting": "acute toxicity in mice", "value": 700, "unit": "mg/kg"}, {"measurement": "Activity (ID 50%), dose inhibiting 50% of protein synthesis", "setting": "[3]", "value": 65}, {"measurement": "MIC", "setting": "Proteus sp.4", "value": "> 500", "unit": "µg/mL"}]}, {"compound": "NC[C@@H]1O[C@H](O[C@H]2[C@@H](O)[C@H](O[C@@H]3[C@@H](O)[C@H](N)C[C@H](N)[C@H]3O[C@H]3O[C@H](CN)[C@@H](O)[C@H](O)[C@H]3O)O[C@@H]2CO)[C@H](N)[C@@H](O)[C@@H]1O", "note": "[compound 224]", "values": [{"measurement": "Activity (ID 50%), dose inhibiting 50% of growth", "setting": "Euglena gracilis", "value": "> 100"}, {"measurement": "effect on growth of algae and protozoa (in words)", "setting": "algae and protozoa", "value": "does not affect the growth of algae and protozoa"}, {"measurement": "MIC", "setting": "Proteus sp.2; [5]", "value": 250, "unit": "µg/mL"}, {"measurement": "MIC", "setting": "Klebsiella pneumoniae; [5]", "value": 2, "unit": "µg/mL"}, {"measurement": "MIC", "setting": "E.coli K12", "value": 125, "unit": "µg/mL"}, {"measurement": "ED50", "setting": "Staphylococcus aureus; mice, single subcutaneous dose 4 h after infection, read-out: DT50 (the source's name)", "value": 50, "unit": "mg/kg"}, {"measurement": "Activity (ID 50%), dose inhibiting 50% of growth", "setting": "Tetrahymena geleei", "value": "> 100"}, {"measurement": "MIC", "setting": "Escherichia coli B", "value": 12.5, "unit": "µg/mL"}, {"measurement": "MIC", "setting": "Proteus sp.1", "value": 125, "unit": "µg/mL"}, {"measurement": "growth of resistant strains (in words)", "setting": "[1]", "value": "prevents the growth of resistant strains"}, {"measurement": "antibacterial activity compared with aminosidine, resistant strains (in words)", "setting": "[1]; resistant strains", "value": "clearly superior on resistant strains"}, {"measurement": "MIC", "setting": "Proteus sp.3", "value": 125, "unit": "µg/mL"}, {"measurement": "Activity (ID 50%), dose inhibiting 50% of growth", "setting": "Entamoeba histolytica", "value": "> 20"}, {"measurement": "Activity (ID 50%), dose inhibiting 50% of growth", "setting": "Ochromonas malhamensis", "value": "> 100"}, {"measurement": "MIC", "setting": "E.coli 526; Escherichia coli, 526, 24 h, 37° C, Nutrient Broth Difco, resistant strain, read-out: MIC", "value": 100, "unit": "µg/mL"}, {"measurement": "MIC", "setting": "Staphilococcus aureus; [5]", "value": 6.2, "unit": "µg/mL"}, {"measurement": "MIC", "setting": "Proteus sp.5; [5]", "value": 250, "unit": "µg/mL"}, {"measurement": "selective inhibition of protein synthesis (in words)", "setting": "[2]; 7OS in comparison with 8OS ribosomes", "value": "selective inhibition of protein synthesis"}, {"measurement": "Activity (ID 50%), dose inhibiting 50% of protein synthesis", "setting": "[2]", "value": 40}, {"measurement": "LD50", "setting": "acute toxicity in mice", "value": 1000, "unit": "mg/kg"}, {"measurement": "Activity (ID 50%), dose inhibiting 50% of protein synthesis", "setting": "[3]", "value": "> 500"}, {"measurement": "antibacterial activity in vitro and in vivo (in words)", "setting": "[4]; bacteria sensitive to the aminosidine", "value": "remarkable antibacterial activity in vitro and in vivo"}, {"measurement": "antibacterial activity compared with aminosidine, sensitive strains (in words)", "setting": "[4]; sensitive strains", "value": "of the same order of magnitude of that of aminosidine"}, {"measurement": "MIC", "setting": "Proteus sp.4", "value": 125, "unit": "µg/mL"}]}]}
